Laboratory results: ChEMBL document CHEMBL1146197, “Evolution of TEM-type enzymes: biochemical and genetic characterization of two new complex mutant TEM enzymes, TEM-151 and TEM-152, from a single patient” (Antimicrob Agents Chemother, 2007)
Converted amounts (≈) assume the structure as drawn.

What was measured:
Escherichia coli [1] = assay: Antimicrobial activity against recombinant Escherichia coli DH5-alpha isolate expressing pBK-TEM-1 and TEM1 by disk diffusion assay; type: functional; details: DH5alpha
Escherichia coli [2] = assay: Activity of Escherichia coli BL21(DE3) beta-lactamase TEM29
Escherichia coli [3] = assay: Antimicrobial activity against Escherichia coli DH5-alpha CF1295 isolate expressing CMT and TEM1 by […]; type: functional; details: DH5alpha
Escherichia coli [4] = assay: Antimicrobial activity against Escherichia coli DH5-alpha TC1179 isolate expressing TEM-1 by […]; type: functional; details: DH5alpha
Escherichia coli [5] = assay: Activity of Escherichia coli BL21(DE3) beta-lactamase TEM151
Escherichia coli [6] = assay: microbe, parasite or virus in culture; type: functional; details: DH5alpha
Description: Antimicrobial activity against recombinant Escherichia coli DH5-alpha CL1179 isolate expressing pBK-TEM-152 and CMT by disk diffusion assay

Escherichia coli [7] = assay: Activity of Escherichia coli BL21(DE3) beta-lactamase TEM28
Escherichia coli [8] = assay: Antimicrobial activity against recombinant Escherichia coli DH5-alpha isolate expressing pBK-TEM-36 and IRT by disk diffusion assay; type: functional; details: DH5alpha
Escherichia coli [9] = assay: Activity of Escherichia coli BL21(DE3) beta-lactamase TEM1
Escherichia coli [10] = assay: Antimicrobial activity against Escherichia coli DH5-alpha TC1295 isolate expressing TEM-1 by […]; type: functional; details: DH5alpha
Escherichia coli [11] = assay: Activity of Escherichia coli BL21(DE3) beta-lactamase TEM36
Escherichia coli [12] = assay: Antimicrobial activity against Escherichia coli DH5-alpha CF1179 isolate expressing CMT and TEM1 by […]; type: functional; details: DH5alpha
Escherichia coli [13] = assay: Antimicrobial activity against Escherichia coli DH5-alpha isolate expressing pBK-CMV by […]; type: functional; details: DH5alpha
Escherichia coli [14] = assay: microbe, parasite or virus in culture; type: functional; details: DH5alpha; remark: listed apart in the source
Description: Antimicrobial activity against recombinant Escherichia coli DH5-alpha CL1295 isolate expressing pBK-TEM-151 and CMT by disk diffusion assay

Escherichia coli [15] = assay: Antimicrobial activity against recombinant Escherichia coli DH5-alpha isolate expressing pBK-TEM-29 and ESBL by disk diffusion assay; type: functional; details: DH5alpha
Escherichia coli [16] = assay: Antimicrobial activity against recombinant Escherichia coli DH5-alpha isolate expressing pBK-TEM-28 and ESBL by disk diffusion assay; type: functional; details: DH5alpha
Escherichia coli [17] = assay: Activity of Escherichia coli BL21(DE3) beta-lactamase TEM152
[18] = Inhibition of Escherichia coli BL21(DE3) beta-lactamase TEM151
[19] = Inhibition of Escherichia coli BL21(DE3) beta-lactamase TEM152
[20] = Inhibition of Escherichia coli BL21(DE3) beta-lactamase TEM1
[21] = Inhibition of Escherichia coli BL21(DE3) beta-lactamase TEM29
[22] = Inhibition of Escherichia coli BL21(DE3) beta-lactamase TEM28
[23] = Inhibition of Escherichia coli BL21(DE3) beta-lactamase TEM36

Structure (SMILES) | MIC (Escherichia coli [1]) [µg/mL] | Km (Escherichia coli [2]) [µM] | kcat (Escherichia coli [2]) [s⁻¹] | kcat/Km (Escherichia coli [2]) [M⁻¹ s⁻¹] | MIC (Escherichia coli [3]) [µg/mL] | MIC (Escherichia coli [4]) [µg/mL] | Km (Escherichia coli [5]) [µM] | kcat (Escherichia coli [5]) [s⁻¹] | kcat/Km (Escherichia coli [5]) [M⁻¹ s⁻¹] | MIC (Escherichia coli [6]) [µg/mL] | Km (Escherichia coli [7]) [µM] | kcat (Escherichia coli [7]) [s⁻¹] | kcat/Km (Escherichia coli [7]) [M⁻¹ s⁻¹] | MIC (Escherichia coli [8]) [µg/mL] | kcat (Escherichia coli [9]) [s⁻¹] | MIC (Escherichia coli [10]) [µg/mL] | kcat (Escherichia coli [11]) [s⁻¹] | MIC (Escherichia coli [12]) [µg/mL] | MIC (Escherichia coli [13]) [µg/mL] | MIC (Escherichia coli [14]) [µg/mL] | also measured
CO/N=C(\C(=O)N[C@@H]1C(=O)N2C(C(=O)O)=C(COC(C)=O)CS[C@H]12)c1csc(N)n1 [CEFOTAXIME] | 0.06 | 345 | 14 | 40000 | 0.12 (≈ 0.263 µM) | 0.02 (≈ 0.0439 µM) | 304 | 5 | 20000 | 0.25 (≈ 0.549 µM) | 50 | 9 | 180000 | 0.06 | < 0.1 | 0.02 (≈ 0.0439 µM) | < 0.1 | 0.12 (≈ 0.263 µM) | 0.02 (≈ 0.0439 µM) | 0.06 (≈ 0.132 µM) | MIC (Escherichia coli [15]): 0.5 µg/mL; MIC (Escherichia coli [16]): 4 µg/mL; Km (Escherichia coli [17]): 34 µM; kcat (Escherichia coli [17]): 1 s⁻¹; kcat/Km (Escherichia coli [17]): 30000 M⁻¹ s⁻¹
CC1(C)S[C@@H]2[C@H](NC(=O)[C@H](C(=O)O)c3ccsc3)C(=O)N2[C@H]1C(=O)O [TICARCILLIN] | > 2050 | 14 | 42 | 3e+06 | > 2050 | > 2050 | 21 | 60 | 2.9e+06 | > 2050 | 9 | 38 | 4.2e+06 | > 2050 | 135 | > 2050 | 176 | > 2050 | 2 (≈ 5.2 µM) | > 2050 | Km (Escherichia coli [9]): 36 µM; kcat/Km (Escherichia coli [9]): 3.8e+06 M⁻¹ s⁻¹; Km (Escherichia coli [11]): 130 µM; kcat/Km (Escherichia coli [11]): 1.3e+06 M⁻¹ s⁻¹; MIC (Escherichia coli [15]): > 2050 µg/mL; MIC (Escherichia coli [16]): > 2050 µg/mL; Km (Escherichia coli [17]): 36 µM; kcat (Escherichia coli [17]): 51 s⁻¹; kcat/Km (Escherichia coli [17]): 1.4e+06 M⁻¹ s⁻¹
CC1(C)S[C@@H]2[C@H](NC(=O)[C@H](N)c3ccc(O)cc3)C(=O)N2[C@H]1C(=O)O [AMOXICILLIN] | > 2050 | 26 | 91 | 3.5e+06 | > 2050 | > 2050 | 40 | 149 | 3.7e+06 | > 2050 | 12 | 88 | 7.3e+06 | > 2050 | 1120 | > 2050 | 624 | > 2050 | 4 (≈ 10.9 µM) | > 2050 | Km (Escherichia coli [9]): 15 µM; kcat/Km (Escherichia coli [9]): 7.5e+07 M⁻¹ s⁻¹; Km (Escherichia coli [11]): 114 µM; kcat/Km (Escherichia coli [11]): 5.5e+06 M⁻¹ s⁻¹; MIC (Escherichia coli [15]): > 2050 µg/mL; MIC (Escherichia coli [16]): > 2050 µg/mL; Km (Escherichia coli [17]): 48 µM; kcat (Escherichia coli [17]): 258 s⁻¹; kcat/Km (Escherichia coli [17]): 5.4e+06 M⁻¹ s⁻¹
C[C@]1(Cn2ccnn2)[C@H](C(=O)O)N2C(=O)C[C@H]2S1(=O)=O [TAZOBACTAM] | – | – | – | – | – | – | – | – | – | – | – | – | – | – | – | – | – | – | – | – | IC50 [18]: 270 nM; IC50 [19]: 400 nM; IC50 [20]: 30 nM; IC50 [21]: 2400 nM; IC50 [22]: 20 nM; IC50 [23]: 130 nM
CC(C)(O/N=C(\C(=O)N[C@@H]1C(=O)N2C(C(=O)[O-])=C(C[n+]3ccccc3)CS[C@H]12)c1csc(N)n1)C(=O)O [CEFTAZIDIME] | 0.12 | 215 | 10 | 50000 | 4 (≈ 7.32 µM) | 0.12 (≈ 0.22 µM) | 250 | 5 | 20000 | 512 (≈ 937 µM) | 240 | 64 | 270000 | 0.25 | < 0.1 | 0.12 (≈ 0.22 µM) | < 0.1 | 64 (≈ 117 µM) | 0.12 (≈ 0.22 µM) | 8 (≈ 14.6 µM) | MIC (Escherichia coli [15]): 32 µg/mL; MIC (Escherichia coli [16]): 512 µg/mL; Km (Escherichia coli [17]): 230 µM; kcat (Escherichia coli [17]): 16 s⁻¹; kcat/Km (Escherichia coli [17]): 70000 M⁻¹ s⁻¹
CCN1CCN(C(=O)N[C@@H](C(=O)N[C@@H]2C(=O)N3[C@@H]2SC(C)(C)[C@@H]3C(=O)O)c2ccccc2)C(=O)C1=O [PIPERACILLIN] | 512 | 39 | 336 | 8.6e+06 | 512 (≈ 989 µM) | 512 (≈ 989 µM) | 44 | 172 | 3.9e+06 | > 2050 | 27 | 213 | 7.9e+06 | > 2050 | 1250 | 512 (≈ 989 µM) | 1220 | > 2050 | 2 (≈ 3.86 µM) | 256 (≈ 495 µM) | Km (Escherichia coli [9]): 55 µM; kcat/Km (Escherichia coli [9]): 2.3e+06 M⁻¹ s⁻¹; Km (Escherichia coli [11]): 170 µM; kcat/Km (Escherichia coli [11]): 7.1e+06 M⁻¹ s⁻¹; MIC (Escherichia coli [15]): 1020 µg/mL; MIC (Escherichia coli [16]): > 2050 µg/mL; Km (Escherichia coli [17]): 50 µM; kcat (Escherichia coli [17]): 306 s⁻¹; kcat/Km (Escherichia coli [17]): 6.12e+06 M⁻¹ s⁻¹
